Source: patent US12440471B2, “Compositions and methods for the treatment of bronchopulmonary dysplasia (BPD) and BPD-associated pulmonary hypertension” (AyuVis Research, Inc., priority 2021, dated 2025)

Experiments:
pre-term lamb BPD model = test: Pre-term lamb BPD model: BAL fluid protein, VEGF, ICAM-1; format: in vivo; details: for VEGF concentrations in BAL fluid: vs vehicle after 10 days
Description: A total 9 lambs were used for this study. One dose of Curosurf was given intratracheally to the PT lamb just after birth. Randomized doses of compound AVR-48 (8) (0, 0.1, 0.3, 1.0 and 3.0 mg/kg) were administered intravenously every 12 hr after the initial dose that will be given at 6 hr after delivery to n=2-4 lambs via slow intravenous injection. The beginning treatment at 6 hr post-delivery is selected to represent the human case where neonatologists attempt to allow an infant to breath without mechanical ventilation, if possible, and then begin invasive respiratory support as necessary. Whole blood was drawn from PT lambs at the time of delivery (“pre-dose”), immediately after dosing (IAD), at 15, 30, 45, and 60 min, and at 2, 4, 8, 12, 24, 48, 72, and 96 hr after the initial dose. Plasma extractions and bioanalysis of compound AVR-48 (8) were performed using a qualified bioanalysis method already developed by us. The PK parameters were calculated following both non-Compartmental Pharmacokinetic Modeling and population Pharmacokinetic Modeling as described by Roberts et al previously (Roberts, Stockmann et al. 2016). Blood was collected every 15 min for the first 90 min of postnatal life, followed by every 3 hours for 12 hours and then spaced at 1.5 d, 2.5 d, 3.5 d, 6.5 d, and 9.5 d for analysis of cytokines (Visconti, Senthamaraikannan et al. 2018) and VEGF levels (Albertine, Dahl et al. 2010). The blood samples also were analyzed for hematology and liver enzymes. After 6-7 d of mechanical ventilation, the lambs will be weaned from mechanical ventillation and weaned to non-invasive support for 3 d to ascertain longer-term outcome (Dahl, Bowen et al. 2018). Terminally, the PT lambs were euthanized after 10 days and their heart/lungs and brain were removed. Ex vivo BAL of the right cranial lobe (it has its own bronchus, pulmonary artery and vein) was done for similar analyses. Tracheal aspirates were collected according to the protocol for cytokines, BAL protein, ICAM-1 and VEGF. The spleen was collected to analyze immune cell population, using FACS.
Bronchoalveolar lavage fluid (BALF) Analysis. Pups were sacrificed on PN14, and the trachea was cannulated with a small-caliber needle by instilling PBS endotracheally at […] pressure for 15 minutes. Two volumes of 300 μL of cold 1×PBS were instilled, gently aspirated, and pooled. Samples were centrifuged at 1000×g for 10 minutes at 4° C. The supernatant was collected, and total protein was quantified using the Pierce™ BCA Protein Assay Kit (Fisher Scientific Co, Houston, TX). The total cell count was done using the TC20 cell counter (BioRad, Hercules, CA). Similar method was followed for analyzing the protein concentration in BAL fluid collected from preterm lambs.

TLR4 = target: T1, TLR4 (Homo sapiens, UniProt O00206); test: TLR4 level in THP-1 human monocytic cells by ELISA; format: cell-based
T1 construct: Cell lysates were prepared, total protein was quantified and treated with different concentrations; host or cells: THP-1 cells stimulated with PMA for 48 h, then lysed
T1 sequence (O00206 24-839): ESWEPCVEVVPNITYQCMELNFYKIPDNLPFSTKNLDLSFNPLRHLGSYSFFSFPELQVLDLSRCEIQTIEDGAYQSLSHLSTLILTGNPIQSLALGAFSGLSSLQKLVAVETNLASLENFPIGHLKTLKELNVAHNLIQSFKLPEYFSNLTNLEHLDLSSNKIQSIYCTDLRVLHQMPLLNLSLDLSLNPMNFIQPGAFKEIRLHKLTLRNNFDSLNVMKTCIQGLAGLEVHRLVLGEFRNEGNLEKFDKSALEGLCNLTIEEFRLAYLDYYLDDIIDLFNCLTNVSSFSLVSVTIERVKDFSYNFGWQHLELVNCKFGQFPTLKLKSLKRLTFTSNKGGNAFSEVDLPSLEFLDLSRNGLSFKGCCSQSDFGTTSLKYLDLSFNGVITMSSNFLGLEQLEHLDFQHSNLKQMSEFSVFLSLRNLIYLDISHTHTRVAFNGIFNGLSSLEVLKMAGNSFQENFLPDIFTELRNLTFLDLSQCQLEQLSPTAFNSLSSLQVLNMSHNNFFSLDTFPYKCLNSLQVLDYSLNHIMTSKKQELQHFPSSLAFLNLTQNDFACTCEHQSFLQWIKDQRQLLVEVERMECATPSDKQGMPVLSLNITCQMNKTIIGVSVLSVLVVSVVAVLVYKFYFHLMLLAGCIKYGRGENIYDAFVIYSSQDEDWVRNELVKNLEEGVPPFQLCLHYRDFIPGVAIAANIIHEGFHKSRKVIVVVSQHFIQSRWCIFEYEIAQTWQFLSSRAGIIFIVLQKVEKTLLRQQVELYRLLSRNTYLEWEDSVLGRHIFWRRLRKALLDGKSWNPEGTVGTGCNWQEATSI

whole cord blood (WCB) = test: Cytokines in whole cord blood (WCB); format: cell-based, human
From the text: IL-1β and IFN-Υ were not detected with either AVR-48 alone or in combination with LPS. N=[…], **p<0.05, ***p<0.005, ****p<0.001, One-way ANOVA.

[1] = tested on: hyperoxia-exposed BPD mouse model; test: BPD mouse model: multiplex ELISA of blood serum cytokines; format: in vivo
Description: Multiplex ELISA. Lung lysate and blood plasma from control and AVR-48 treated group were used for Multiplex ELISA performed on 4 separate inflammatory panels of Meso Scale Discovery multispot assay system (MSD, Rockville, MD) to detect 2 chemokines (MIP-2, MCP-1) and 8 cytokines: IL-21, IP-10, IFNγ, IL-1(3, TNFα, IL-17, IL-10 and IL-6 following the manufacturer's instructions. Briefly, samples were diluted 1:1 in a total volume of 25 μl with the dilution buffer provided with MSD kit and incubated with the above labelling antibodies for 2 h, RT followed by washing with PB ST. The […] was detected using the MSD-specific luminometer.

[2] = PK study in mouse pups by IP and IN routes (plasma, lung tissue); format: in vivo
From the text: Pharmacokinetic (PK) Profile of AVR-48 (compound 8). The PK studies of AVR-48 were developed and designed in-house, by high performance liquid chromatography (HPLC), in both mouse and rat pups by IV, IP and IN dosing, to check the bioavailability of the drug formulated as solution, suspension or nanoparticle encapsulation in plasma, broncho-alveolar lavage fluid (BALF) and lung tissues.
The first study was done in the plasma of mouse pups by IP and IN routes to determine the dose range for efficacy. […] For IN dosing, a Tmax of 1 h was found even with a dose of 0.22 mg/kg and rapid clearance was observed by 2 h.

hPBMC = test: Macrophage populations in hPBMC by FACS; format: cell-based, human; details: 72 h
Description: Briefly, hPBMC were plated in a 96 well plate and treated with AVR 48 for 72 hrs. The cells were washed and stained for CD32, CD14, CD16, HLADR, CD86, CD206 anti-human antibodies and were analyzed by FACS. Dead cells were excluded by live/dead staining (7AAD) during analysis. The % of intermediate macrophages of the parent cells are determined as the macrophages stained positive for both HLADR and CD206 surface markers. The bar graph representing percentage of intermediate macrophages (Mint) of the parent macrophage populations (CD14+CD16+) after treatment with AVR-48. n=2 technical replicates and the experiment is repeated 3 times. AVR-48 binds to both toll-like receptor 4 (TLR4) and CD163 receptor on monocytes. In hPBMC, AVR-48 treatment for 72 h increased the percentage of intermediate macrophages and decreased M1 macrophages.

[3] = vs vehicle treated lambs after 10 days
[4] = AVR-48 alone or in combination with LPS
[5] = C57BL/6J, mouse, plasma, 10 mg/kg IP

With CC(=O)N[C@@H]1C(Oc2ccc([N+](=O)[O-])cc2)OC(CO)C(O)C1O (stereo partly shown) [AVR-48] the “VEGF concentrations in BAL fluid” value (pre-term lamb BPD model; high dose (3.0 mg/kg)) was “no effect”, the “VEGF concentrations in BAL fluid” value (pre-term lamb BPD model; low doses) was “increase” and the “ICAM-1 concentrations in BAL fluid” value (pre-term lamb BPD model; [3]) was “increase”. The “total protein concentration in BAL fluid” value (pre-term lamb BPD model; [3]) was “decreased”, the “EC50, binding to monocytes/macrophages possibly via surface receptor TLR4” value (TLR4) was “sub nanomolar” and the DC50 (TLR4; THP-1 cells, after 48 h of treatment, ELISA, read-out: EC50, decrease of TLR4 level) was 0.076 µM. For the same molecule, the IFN-Υ (whole cord blood (WCB); [4]) was “not detected”, the IL-1β (whole cord blood (WCB); [4]) was “not detected” and the IL-10 increase (whole cord blood (WCB); AVR-48 alone, 10 μM) was about 1.5 fold. The IL-10 (whole cord blood (WCB); LPS+AVR-48, 10 μM) was “increased”, the TNF-α level (whole cord blood (WCB); alone or in combination with LPS) was “significantly decreased” and the IFNγ ([1]; AVR-48 treated group) was “decreased to normal levels”. For the same molecule, the IL-1β ([1]; AVR-48 treated group) was “decreased to normal levels”, the IP-10 ([1]; AVR-48 treated group) was “decreased to normal levels” and the MCP-1 ([1]; AVR-48 treated group) was “decreased to normal levels”. The TNFα ([1]; AVR-48 treated group) was “decreased to normal levels”, the IL-10 ([1]; BPD group) was “markedly increased” and the IL-17 ([1]; treated vs untreated BPD) was “no change”. The IL-21 ([1]; treated vs untreated BPD) was “no change”, the MIP-2 ([1]; treated vs untreated BPD) was “no change” and the Tmax ([2]; C57BL/6J, mouse, intraperitoneal, lung tissue, 10 mg/kg) was 5 min. It also gave a Cmax ([2]; C57BL/6J, mouse, intraperitoneal, plasma, single IV or IP injection of 10 mg/kg) of 5.78 ± 0.91 µM, a Tmax ([2]; C57BL/6J, mouse, plasma, other: intranasal (IN), IN dosing, 0.22 mg/kg) of 60 min and a Tmax ([2]; C57BL/6J, mouse, plasma, 0.22 mg/kg IP) of 5 min. For the same molecule, the Tmax [2, 5] was 5 min, the half-life [2, 5] was 21.6 min and the “time by which rapid clearance was observed” value ([2]; IN dosing, 0.22 mg/kg) was at most 2 h. The clearance from circulation ([2]; following IP injection) was “cleared from circulation rapidly”, the “bioavailability in plasma and lungs, IN vs IP” value ([2]; solution formulation) was “similar” and the M1 macrophages (hPBMC) was “decreased”. For the same molecule, the “percentage of intermediate macrophages” value (hPBMC) was “increased”.
